In paper PMC4502315, “High Potency of a Novel Resveratrol Derivative, 3,3′,4,4′-Tetrahydroxy-trans-stilbene, against Ovarian Cancer Is Associated with an Oxidative Stress-Mediated Imbalance between DNA Damage Accumulation and Repair” (Oxidative Medicine and Cellular Longevity, 2015):

What was measured:
SKOV-3 cells [1] = experiment: ROS production (H2DCFDA), SKOV-3; format: cell-based, human; conditions: 24 h, 10, 50, 100 μM tested
Experimental: (§1) ROS production was assessed in cells probed with a fluorescent dye, 2′,7′-dichlorodihydrofluorescein diacetate (H2DCFDA; 5 μM) (Molecular Probes, Eugene, USA) for 45 min at 37°C. Fluorescence intensity in cell lysates was monitored in a Victor2 spectrofluorometer with excitation at 485 nm and emission at 535 nm.

HPMCs [2] = experiment: ROS production (H2DCFDA), HPMCs; format: cell-based, human; conditions: 24 h, percentage of control cells
Experimental: as §1

HOSE cells [3] = experiment: Cell proliferation (CFDA SE), HOSE cells; format: cell-based, human; conditions: 24 h, percentage of control cells
Experimental: Cell proliferative potential was determined using Cell Proliferation Kit I (PromoKine, Heidelberg, Germany) according to the manufacturer's instructions. In brief, cells were probed for 15 min with 5-(and 6)-carboxyfluorescein diacetate, a succinimidyl ester (CFDA SE; 2 μM) which diffuses into cells, covalently binds to proteins, and becomes fluorescent upon its hydrolysis by intracellular esterases. The fluorescence emitted by the cells (the dye is inherited by the daughter cells through successive divisions) was recorded using a Victor2 spectrofluorometer (Perkin-Elmer, Turku, Finland) with excitation at 435 nm and emission at 535 nm.

HOSE cells [4] = experiment: SA-β-Gal activity (senescence), HOSE cells; format: cell-based, human; conditions: 24 h, percentage of control cells
Experimental: (§2) The activity of SA-β-Gal in the cell extracts was quantified by measuring the rate of conversion of 4-methylumbelliferyl-β-D-galactopyranoside to 4-methylumbelliferone, as described in [19]. In order to visualize expression of the enzyme in the cancer cell cytoplasm, cytochemical staining for SA-β-Gal was performed according to Dimri et al..

SKOV-3 cells [5] = experiment: SA-β-Gal activity (senescence), SKOV-3; format: cell-based, human; conditions: 24 h, 10, 50, 100 μM tested
Experimental: as §2

HOSE cells [6] = experiment: LDH release assay, HOSE cells; format: cell-based, human; conditions: Homo sapiens, 24 h, CalcuSyn
[7] = tested on: ovarian cancer cells (A2780, OVCAR-3, SKOV-3); experiment: Efficiency of 8-OH-dG repair after 24-h recovery, ovarian cancer cells; format: cell-based, human; conditions: all three cancer cell lines; 24-h stilbene exposure then 24-h recovery
Experimental: Oxidative DNA damage was assessed by measuring the 8-OH-dG concentration with a competitive immunoassay (Cell Biolabs Inc.), as per manufacturer's instructions. The efficiency of 8-OH-dG repair was estimated after cell recovery for 24 h in standard growth medium. In order to examine the activity of DNA glycosylase I, reverse transcription PCR was performed. RNA extraction was carried out using the RNA Bee (Tel-Test, Friendswood, Texas, USA) and purified according to the manufacturer's protocol. One microgram of RNA was reverse transcribed into cDNA with random hexamer primers, and cDNA was subjected to PCR. The profile of the replication cycles was denaturation at 94°C for 50 s, annealing at 58°C for 50 s, and polymerization at 72°C for 1 min. In each reaction, the expression of glyceraldehyde-3-phosphate dehydrogenase (GAPDH) served as the internal control. The primers used for PCR were as follows: hOGG1 forward, 5′-[…]-3′; hOGG1 reverse, 5′-TAGCCCGCCCTGTTCTTC-3′ designed to amplify a 551-bp region; GAPDH forward, 5′-CCATGGAGAAGGCTGGGG-3′; and GAPDH reverse 5′-[…]-3′ designed to amplify a 194-bp region (total number of cycles: 28). The PCR products were separated on 3% agarose gels stained with ethidium bromide and then visualized.
The cancer cells were treated with RVT and 3,3′,4,4′-THS to cause DNA injury; then they were washed and kept in standard growth medium to recover.

OVCAR-3 = experiment: LDH release assay, OVCAR-3; format: cell-based; conditions: Homo sapiens, 24 h; for IC50: CalcuSyn
Experimental: As per LDH release, the measurements were performed using the commercially available Pierce LDH Cytotoxicity Assay Kit (Pierce Biotechnology, Rockford, IL, USA). In this assay, cells with damaged plasma membranes release LDH into the culture environment; then the enzyme catalyses the conversion of lactate to pyruvate, which is accompanied by a reduction of NAD^+ to NADH. Afterwards, diaphorase uses NADH to reduce a tetrazolium salt to a formazan whose level is proportional to LDH activity. The absorbance emitted by the formazan was monitored at 490 nm with a reference wavelength of 680 nm.
(§3) In order to examine the effect of 3,3′,4,4′-THS on the viability of ovarian cancer cells and to compare its activity with RVT, subconfluent cultures of A2780, OVCAR-3, and SKOV-3 cells were subjected to a wide range of stilbene concentrations (0–500 μM) for 24 h; then MTT and LDH release assays were performed.

HPMCs [8] = experiment: MTT viability assay, HPMCs; format: cell-based, human; conditions: 24 h; for IC50: Homo sapiens, CalcuSyn; for concentration up to which viability was maintained: cytotoxicity tests (MTT and LDH release)
Experimental: Cell viability was assessed with the MTT test and with lactate dehydrogenase (LDH) release assay. As per the MTT method, normal and cancer cells were seeded into 96-well plates at high density and allowed to attach overnight. Then they were incubated in a medium containing 1.25 mg/mL of the MTT salt [3-(4,5-dimethylthiazol-2-yl)-2,5-diphenyltetrazolium bromide] for 24 h at 37°C. The generated formazan was solubilized with 20% sodium dodecyl sulphate and 50% N,N-dimethylformamide. Absorbance of the converted dye was recorded at 595 nm with a reference wavelength of 690 nm.
as §3

p38 MAPK = p38 MAPK activation (FACE ELISA), SKOV-3; format: cell-based, human; conditions: 24 h, 10, 50, 100 μM tested
Experimental: Activation of p38 MAPK was examined using the Fast Activated Cell-Based ELISA (FACE) p38 kit (Active Motif) according to the manufacturer's instructions. In brief, cells were fixed with 4% formaldehyde and incubated with a primary antibody that recognizes either phosphorylated p38 or total p38 overnight at 4°C. Then the cells were washed and incubated with a secondary HRP-conjugated antibody for 1 h at room temperature. The color reaction that developed was read using a spectrofluorometer at 450 nm wavelength.
The results were expressed as a ratio of phosphorylated to total p38 activity.

HPMCs [9] = experiment: Apoptosis (Hoechst 33258), HPMCs; format: cell-based, human; conditions: 24 h, percentage of control cells
Experimental: Identification of apoptosis was based on the presence of DNA condensation in cells stained with a fluorescent dye, Hoechst 33258 (Molecular Probes, Eugene, OR). Cells were grown on Lab-Tek Chamber Slides (Nunc, Roskilde, Denmark), fixed with 4% formaldehyde for 10 min and washed twice with PBS. Then the cells were incubated with Hoechst 33258 (0.1 μg/mL) for 5 min in the dark. After washing with PBS, stained nuclei were observed and counted under a Zeiss Axio Observer D1 fluorescence microscope (Carl Zeiss, Jena, Germany). The activity of caspases 3, 8, and 9 was quantified in the cell lysates using specific colorimetric kits (Abcam, Cambridge, UK) according to the manufacturer's instructions.

| SMILES | generation of ROS, effect in words (SKOV-3 cells [1]) | ROS (HPMCs [2]; 10 μM) | ROS (HPMCs [2]; 50 μM) [%] | ROS (HPMCs [2]; 100 μM) | Proliferation (HOSE cells [3]; 10 μM) | Proliferation (HOSE cells [3]; 50 μM) [%] | Proliferation (HOSE cells [3]; 100 μM) [%] | SA-β-Gal (HOSE cells [4]; 10 μM) [%] | SA-β-Gal (HOSE cells [4]; 50 μM) [%] | SA-β-Gal (HOSE cells [4]; 100 μM) [%] | SA-β-Gal activity (senescence), effect in words (SKOV-3 cells [5]) | IC50 (HOSE cells [6]) [µM] | 8-OH-dG level after 24-h recovery in standard growth medium, in words [7] | IC50 (OVCAR-3) [µM] | IC50 (HPMCs [8]) [µM] | concentration up to which viability was maintained (HPMCs [8]) | p38 MAPK activity (phosphorylated/total), effect in words (p38 MAPK) | Apoptosis (HPMCs [9]; 10 μM) [%] | Apoptosis (HPMCs [9]; 50 μM) [%] | Apoptosis (HPMCs [9]; 100 μM) [%] | further results |
| --- | --- | --- | --- | --- | --- | --- | --- | --- | --- | --- | --- | --- | --- | --- | --- | --- | --- | --- | --- | --- | --- |
| Oc1ccc(/C=C/c2ccc(O)c(O)c2)cc1O [3,3′,4,4′-THS, 3,3′,4,4′-tetrahydroxy-trans-stilbene] | remarkably stronger | 104 ± 4% | 102 ± 3 | 82 ± 1^∗# % | 116 ± 2^∗ % | 103 ± 1 | 99 ± 5 | 99 ± 2 | 101 ± 3 | 102 ± 5 | significantly greater than those of RVT at each concentration | 532 | still markedly higher than in the unstimulated cells | 85 | 496 | up to 300 μM | exerted upregulatory activity at 50 and 100 μM | 98 ± 2 | 102 ± 2 | 100 ± 4 | viability at 10 µM (OVCAR-3; 10 μM, percentage of control cells): 62 ± 12%; viability at 50 µM (OVCAR-3; 50 μM, percentage of control cells): 53 ± 3%; viability at 100 µM (OVCAR-3; 100 μM, percentage of control cells): 46 ± 3% |
| Oc1ccc(/C=C/c2cc(O)cc(O)c2)cc1 [RVT, 3,4′,5-trihydroxy-trans-stilbene, reference compound] | stimulated the release of ROS | 108 ± 4^∗ % | 106 ± 11 | 105 ± 7% | 103 ± 4% | 102 ± 1 | 104 ± 2 | 101 ± 2 | 101 ± 2 | 100 ± 3 | cellular senescence was elicited | 421 | returned to basal values within 24 h | 525 | 465 | up to 300 μM | failed to activate p38 MAPK | 101 ± 1 | 101 ± 1 | 98 ± 3 |  |
